For 22 compounds, AC50, IC50 and EC50 results are on record in ChEMBL document CHEMBL1201862, “PubChem BioAssay data set” (2004).

The source made the active and inactive calls. Bounds are passed on as bounds.

The nature of test [1]: blockers of HIV-1 envelope-mediated cell-cell fusion – cherry-pick, dose response (AID 652057). Format: functional, cell-based.
The nature of test [2]: HIV-1 AD8 envelope cell-cell fusion blockers – cherry-pick, dose response (AID 652062).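 Note: luciferase signal from cell-cell fusion driven by HIV-1 clade B AD8 Env; potency is for inhibitors of fusion seen as a drop in luminescence.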 Format: functional, cell-based.
Another test has as its target Nonstructural protein 1 (Influenza A virus, UniProt Q194T2). Format: functional, Influenza A virus (A/California/07/2009(H1N1)).
For test [3], the target named is T1, Short transient receptor potential channel 4 (Mus musculus, UniProt Q9QUQ5).
T1 sequence (Q9QUQ5 whole entry): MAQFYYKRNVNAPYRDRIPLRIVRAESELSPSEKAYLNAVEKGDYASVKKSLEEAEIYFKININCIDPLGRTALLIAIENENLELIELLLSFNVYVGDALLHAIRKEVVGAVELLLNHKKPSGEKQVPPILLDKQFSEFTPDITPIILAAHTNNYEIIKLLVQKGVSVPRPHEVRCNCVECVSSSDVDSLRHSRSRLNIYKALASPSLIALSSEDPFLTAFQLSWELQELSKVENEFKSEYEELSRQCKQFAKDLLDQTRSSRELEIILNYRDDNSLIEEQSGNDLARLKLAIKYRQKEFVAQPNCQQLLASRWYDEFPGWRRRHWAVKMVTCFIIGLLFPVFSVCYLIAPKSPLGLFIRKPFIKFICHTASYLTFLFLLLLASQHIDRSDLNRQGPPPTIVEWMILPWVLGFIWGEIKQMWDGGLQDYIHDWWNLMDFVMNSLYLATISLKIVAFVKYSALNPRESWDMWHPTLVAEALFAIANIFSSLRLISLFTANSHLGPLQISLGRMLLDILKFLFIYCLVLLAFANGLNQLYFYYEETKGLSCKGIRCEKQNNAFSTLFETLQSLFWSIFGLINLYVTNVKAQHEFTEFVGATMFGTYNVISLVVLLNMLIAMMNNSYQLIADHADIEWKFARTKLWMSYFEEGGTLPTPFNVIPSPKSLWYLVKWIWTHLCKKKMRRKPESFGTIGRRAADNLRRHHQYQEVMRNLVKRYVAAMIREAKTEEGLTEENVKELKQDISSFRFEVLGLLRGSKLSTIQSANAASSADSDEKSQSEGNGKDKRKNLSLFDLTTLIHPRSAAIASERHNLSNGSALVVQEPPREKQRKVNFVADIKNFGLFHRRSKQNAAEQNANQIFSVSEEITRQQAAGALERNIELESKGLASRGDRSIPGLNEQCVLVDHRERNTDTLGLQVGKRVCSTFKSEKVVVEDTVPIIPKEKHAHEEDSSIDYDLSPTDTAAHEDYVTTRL
Kind of test: block of DAMGO-driven TRPC4 calcium entry – cell-based, HEK293 TRPC4/mu-opioid, Fluo-4 calcium, dose response (AID 434942).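 Note: potency of inhibitors blocking the TRPC4 calcium response.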 Format: functional.

A further test concerns the target T2, Protein skinhead-1 (Caenorhabditis elegans, UniProt P34707).
T2 sequence (P34707 whole entry): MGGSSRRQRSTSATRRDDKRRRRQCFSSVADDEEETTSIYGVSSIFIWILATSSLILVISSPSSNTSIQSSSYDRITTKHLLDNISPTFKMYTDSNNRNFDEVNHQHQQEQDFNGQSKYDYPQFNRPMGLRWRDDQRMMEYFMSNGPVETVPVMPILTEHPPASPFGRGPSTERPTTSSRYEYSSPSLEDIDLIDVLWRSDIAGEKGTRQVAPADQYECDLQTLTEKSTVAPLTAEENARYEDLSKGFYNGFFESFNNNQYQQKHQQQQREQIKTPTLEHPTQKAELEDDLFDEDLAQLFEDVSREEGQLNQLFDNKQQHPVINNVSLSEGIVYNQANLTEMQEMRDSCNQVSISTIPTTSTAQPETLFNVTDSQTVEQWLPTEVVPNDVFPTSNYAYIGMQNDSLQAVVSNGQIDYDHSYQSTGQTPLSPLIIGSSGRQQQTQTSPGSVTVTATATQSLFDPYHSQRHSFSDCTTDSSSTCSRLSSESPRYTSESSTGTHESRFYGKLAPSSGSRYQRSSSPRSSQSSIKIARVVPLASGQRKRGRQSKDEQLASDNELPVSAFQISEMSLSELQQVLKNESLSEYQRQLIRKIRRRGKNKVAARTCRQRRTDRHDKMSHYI
Format: functional.

The target in test [4] is T3, Long-chain-fatty-acid--AMP ligase FadD28 (Mycobacterium tuberculosis, UniProt P9WQ59).
T3 sequence (P9WQ59 whole entry): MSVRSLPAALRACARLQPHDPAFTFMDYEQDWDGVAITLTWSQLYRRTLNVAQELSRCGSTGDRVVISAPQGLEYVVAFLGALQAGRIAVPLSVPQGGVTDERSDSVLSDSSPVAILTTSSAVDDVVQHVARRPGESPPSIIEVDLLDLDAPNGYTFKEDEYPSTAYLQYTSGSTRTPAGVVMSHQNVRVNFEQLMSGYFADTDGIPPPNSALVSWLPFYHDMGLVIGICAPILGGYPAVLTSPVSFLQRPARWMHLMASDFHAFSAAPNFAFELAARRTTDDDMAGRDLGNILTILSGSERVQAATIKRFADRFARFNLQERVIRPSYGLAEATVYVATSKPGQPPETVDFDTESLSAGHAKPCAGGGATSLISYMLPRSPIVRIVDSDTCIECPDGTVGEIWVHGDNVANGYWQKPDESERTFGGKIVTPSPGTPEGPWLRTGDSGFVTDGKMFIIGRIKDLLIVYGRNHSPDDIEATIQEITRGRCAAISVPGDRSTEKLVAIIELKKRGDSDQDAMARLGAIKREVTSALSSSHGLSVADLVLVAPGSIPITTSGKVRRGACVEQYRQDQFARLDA
Kind of test: Fluorescence polarization aasay to screen for inhibitors that compete for the binding of FadD28 to a bisubstrate Measured in Biochemical System Using Plate Reader - 2147-01_Inhibitor_Dose_CherryPick_Activity. Format: functional, Mycobacterium tuberculosis H37Rv. (Fluorescence polarisation rises when a labelled molecule tumbles more slowly, as on binding a larger partner.)

Test [5] concerns BJ. The test is described as follows: cells. Format: functional, cell-based. As to conditions: Homo sapiens.
Test [6] has as its system BJ. Kind of test: BJ-TERT fibroblast viability loss – cell-based, RAS-independent, luminescence, dose response (AID 1933). As to conditions: Homo sapiens. Format: functional.
Test [7] in a line: DRD fibroblast viability loss – cell-based, non-viral oncogenic, luminescence, dose response (AID 1934). Format: functional. The conditions noted are these: Homo sapiens.
The subject of test [8] is BJ. Kind of test: BJ-TERT-LT-ST fibroblast viability loss – cell-based, RAS-independent, luminescence, dose response (AID 1935).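 Note: BJ fibroblasts immortalized with TERT plus LT and ST oncogenes.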 As to conditions: Homo sapiens. Format: functional.
Test [9] is described as follows: Luminescence Cell-Based Dose Response HTS to Identify Activators of Luciferase Translation or Activity in H4 […] Cells. [Related pubchem assays: 1829 (Project Summary), 1814 (Primary HTS)]. Format: functional.
In the next test the test system is H4. Kind of test: Luminescence Cell-Based Dose Response HTS to Identify Activators of 5'UTR Stem-Loop Driven Prion Protein mRNA Translation in H4 Neuroglioblastoma Cells. [Related pubchem assays: 1829 (Project Summary), 1814 (Primary HTS)]. As to conditions: Homo sapiens. Format: functional.
Test [10] in a line: Luminescence Cell-Based Dose Confirmation HTS to Identify Activators of 5'UTR Stem-Loop Driven Alpha-Synuclein mRNA Translation in H4 Neuroglioblastoma Cells. [Related pubchem assays: 1829 (Project Summary), 1814 (Primary HTS)]. Format: functional.
The target in test [11] is Induced myeloid leukemia cell differentiation protein Mcl-1 (Homo sapiens, UniProt Q07820). Format: functional.
Chain of Induced myeloid leukemia cell differentiation protein Mcl-1 (Q07820 whole entry, the tested form may be a part): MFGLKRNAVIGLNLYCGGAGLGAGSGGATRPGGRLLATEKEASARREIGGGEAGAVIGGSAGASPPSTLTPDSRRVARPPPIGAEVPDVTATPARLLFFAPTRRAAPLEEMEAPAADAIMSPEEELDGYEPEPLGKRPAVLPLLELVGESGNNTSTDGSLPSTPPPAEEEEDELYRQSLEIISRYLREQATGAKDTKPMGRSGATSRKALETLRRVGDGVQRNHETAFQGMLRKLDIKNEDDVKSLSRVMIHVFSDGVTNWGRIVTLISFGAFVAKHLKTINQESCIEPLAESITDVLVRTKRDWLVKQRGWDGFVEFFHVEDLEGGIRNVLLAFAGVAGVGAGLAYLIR
Test [12] has as its target T4, Polyadenylate-binding protein 1 (Homo sapiens, UniProt P11940). The test is described as follows: MLLE domain peptide-binding blockers, IC50 – biochemical, fluorescence polarization, FITC-PAM2 peptide, dose response (AID 602259). Format: functional. The conditions noted are these: read-out: IC50_Mean.
The target of test [13] is T4, Polyadenylate-binding protein 1. The test is described as follows: MLLE binding blockers, Cy5 peptide tracer – biochemical, fluorescence polarization, Cy5-PAM2 peptide, secondary, miRNA deadenylation inhibitor project, dose response (AID 602260). As to conditions: read-out: IC50_Mean. Format: functional.
A further test concerns the target Fatty acid synthase (Homo sapiens, UniProt P49327). Kind of test: inhibition of human FAS-TE enzyme activity – biochemical, kinetic fluorescence intensity, dose response (AID 624326).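 Note: rate of fluorescence rise from hydrolysis of a fluorogenic O-methyl fluorescein ester substrate.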 Format: functional.
The subject of another test is INS1. The test is described as follows: INS-1E survival protection against cytokine death – cell-based, luminescence, retest, dose response (AID 449756).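 Note: cell death triggered by IL-1 beta plus TNF-alpha plus IFN-gamma mixture; protective hits raise ATP signal compared with cytokine alone wells.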 Format: functional. The conditions noted are these: Rattus norvegicus.
A short description of test [14]: NIH-3T3 fibroblast cytotoxicity, dose response, cytotoxicity control, cell-based, fluorescence, Alamar Blue, secondary assay (AID 2327).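 Note: NIH-3T3 mouse fibroblasts cultured with fluconazole at 8 µg/mL.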 Format: functional. On the technique in general: Alamar Blue is a resazurin reagent that responds to reducing activity.
Test [15] can be described thus: fluconazole-exposed Candida albicans growth modulators – fluorescence, retest, confirmation (AID 2467). Format: functional, cell-based.
For test [16], the target named is FAD-linked sulfhydryl oxidase ALR (Homo sapiens, UniProt P55789). Kind of test: ALR-catalysed DTT oxidation blockers – biochemical, H2O2 detection, luminescence, cherry-pick, dose response (AID 493248).
Chain of FAD-linked sulfhydryl oxidase ALR (P55789 whole entry): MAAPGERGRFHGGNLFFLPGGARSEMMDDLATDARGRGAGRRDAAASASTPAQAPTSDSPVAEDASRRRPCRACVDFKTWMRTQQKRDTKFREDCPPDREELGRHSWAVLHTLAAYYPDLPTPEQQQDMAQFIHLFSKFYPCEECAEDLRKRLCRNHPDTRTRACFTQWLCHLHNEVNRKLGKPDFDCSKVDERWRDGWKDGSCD
The target of another test is Large T antigen (Simian virus 40, UniProt P03070). Format: functional, Betapolyomavirus macacae.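 Note: Confirmatory-stage PubChem screen for compounds that inhibit SV40 T antigen.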
Chain of Large T antigen (P03070 whole entry): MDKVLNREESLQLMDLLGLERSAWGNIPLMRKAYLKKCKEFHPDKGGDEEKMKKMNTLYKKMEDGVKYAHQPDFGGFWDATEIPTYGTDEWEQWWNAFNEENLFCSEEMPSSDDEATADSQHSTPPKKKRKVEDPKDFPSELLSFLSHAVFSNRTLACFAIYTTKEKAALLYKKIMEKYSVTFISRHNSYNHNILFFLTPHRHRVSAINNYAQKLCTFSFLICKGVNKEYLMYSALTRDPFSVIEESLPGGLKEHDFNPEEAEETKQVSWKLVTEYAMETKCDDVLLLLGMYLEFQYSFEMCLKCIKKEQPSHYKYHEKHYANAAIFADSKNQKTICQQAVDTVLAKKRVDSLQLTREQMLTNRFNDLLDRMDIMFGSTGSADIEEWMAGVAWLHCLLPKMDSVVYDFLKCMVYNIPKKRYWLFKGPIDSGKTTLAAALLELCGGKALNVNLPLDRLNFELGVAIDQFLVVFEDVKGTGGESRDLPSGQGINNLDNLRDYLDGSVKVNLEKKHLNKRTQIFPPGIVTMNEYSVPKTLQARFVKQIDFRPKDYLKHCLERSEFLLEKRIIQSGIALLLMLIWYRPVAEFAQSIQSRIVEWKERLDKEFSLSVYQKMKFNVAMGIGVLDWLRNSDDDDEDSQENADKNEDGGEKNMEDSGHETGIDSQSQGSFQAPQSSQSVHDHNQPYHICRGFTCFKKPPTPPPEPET
Test [17] deals with DNA dC->dU-editing enzyme APOBEC-3G (Homo sapiens, UniProt Q9HC16). Kind of test: Dose Response confirmation of small molecule APOBEC3G DNA Deaminase Inhibitors via a fluorescence-based single-stranded DNA deaminase assay. [Related pubchem assays (depositor defined):AID493012, AID493028]. Format: functional.
Chain of DNA dC->dU-editing enzyme APOBEC-3G (Q9HC16 whole entry): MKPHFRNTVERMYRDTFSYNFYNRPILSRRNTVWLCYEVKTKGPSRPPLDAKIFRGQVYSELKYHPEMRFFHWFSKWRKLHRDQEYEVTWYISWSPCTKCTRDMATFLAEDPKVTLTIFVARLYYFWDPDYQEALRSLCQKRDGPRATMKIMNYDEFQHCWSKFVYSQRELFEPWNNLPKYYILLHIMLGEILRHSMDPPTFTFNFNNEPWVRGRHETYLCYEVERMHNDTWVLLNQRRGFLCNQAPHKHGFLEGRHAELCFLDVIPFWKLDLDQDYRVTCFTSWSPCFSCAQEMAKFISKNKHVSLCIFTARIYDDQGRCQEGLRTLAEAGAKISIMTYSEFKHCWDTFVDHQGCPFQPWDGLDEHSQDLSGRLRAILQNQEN

T4 sequence (P11940 whole entry, the tested form may be a part): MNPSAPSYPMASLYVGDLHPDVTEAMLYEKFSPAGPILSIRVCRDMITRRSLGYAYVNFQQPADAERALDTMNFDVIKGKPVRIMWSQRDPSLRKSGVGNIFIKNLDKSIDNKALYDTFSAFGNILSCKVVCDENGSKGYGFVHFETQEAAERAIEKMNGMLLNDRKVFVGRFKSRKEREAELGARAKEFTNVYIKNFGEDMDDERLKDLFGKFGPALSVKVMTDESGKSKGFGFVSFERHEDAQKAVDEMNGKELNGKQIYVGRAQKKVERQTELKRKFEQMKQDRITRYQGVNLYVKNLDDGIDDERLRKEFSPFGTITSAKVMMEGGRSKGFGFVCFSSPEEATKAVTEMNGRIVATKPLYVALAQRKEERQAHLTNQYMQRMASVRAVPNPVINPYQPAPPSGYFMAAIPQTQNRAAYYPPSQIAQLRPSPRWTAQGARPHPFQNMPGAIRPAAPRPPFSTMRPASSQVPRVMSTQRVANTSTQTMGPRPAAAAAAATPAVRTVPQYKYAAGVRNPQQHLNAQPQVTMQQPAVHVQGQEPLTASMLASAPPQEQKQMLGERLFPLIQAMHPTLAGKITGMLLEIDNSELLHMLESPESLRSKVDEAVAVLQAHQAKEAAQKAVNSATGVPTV
Chain of Nonstructural protein 1 (Q194T2 whole entry): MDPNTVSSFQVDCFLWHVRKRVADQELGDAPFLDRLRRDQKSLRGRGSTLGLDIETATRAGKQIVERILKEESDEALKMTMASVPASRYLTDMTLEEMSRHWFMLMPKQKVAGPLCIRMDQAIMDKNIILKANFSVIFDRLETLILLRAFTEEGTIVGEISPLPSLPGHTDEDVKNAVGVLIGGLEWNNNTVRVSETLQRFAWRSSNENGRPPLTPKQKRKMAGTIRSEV
Chain of Fatty acid synthase (P49327 whole entry): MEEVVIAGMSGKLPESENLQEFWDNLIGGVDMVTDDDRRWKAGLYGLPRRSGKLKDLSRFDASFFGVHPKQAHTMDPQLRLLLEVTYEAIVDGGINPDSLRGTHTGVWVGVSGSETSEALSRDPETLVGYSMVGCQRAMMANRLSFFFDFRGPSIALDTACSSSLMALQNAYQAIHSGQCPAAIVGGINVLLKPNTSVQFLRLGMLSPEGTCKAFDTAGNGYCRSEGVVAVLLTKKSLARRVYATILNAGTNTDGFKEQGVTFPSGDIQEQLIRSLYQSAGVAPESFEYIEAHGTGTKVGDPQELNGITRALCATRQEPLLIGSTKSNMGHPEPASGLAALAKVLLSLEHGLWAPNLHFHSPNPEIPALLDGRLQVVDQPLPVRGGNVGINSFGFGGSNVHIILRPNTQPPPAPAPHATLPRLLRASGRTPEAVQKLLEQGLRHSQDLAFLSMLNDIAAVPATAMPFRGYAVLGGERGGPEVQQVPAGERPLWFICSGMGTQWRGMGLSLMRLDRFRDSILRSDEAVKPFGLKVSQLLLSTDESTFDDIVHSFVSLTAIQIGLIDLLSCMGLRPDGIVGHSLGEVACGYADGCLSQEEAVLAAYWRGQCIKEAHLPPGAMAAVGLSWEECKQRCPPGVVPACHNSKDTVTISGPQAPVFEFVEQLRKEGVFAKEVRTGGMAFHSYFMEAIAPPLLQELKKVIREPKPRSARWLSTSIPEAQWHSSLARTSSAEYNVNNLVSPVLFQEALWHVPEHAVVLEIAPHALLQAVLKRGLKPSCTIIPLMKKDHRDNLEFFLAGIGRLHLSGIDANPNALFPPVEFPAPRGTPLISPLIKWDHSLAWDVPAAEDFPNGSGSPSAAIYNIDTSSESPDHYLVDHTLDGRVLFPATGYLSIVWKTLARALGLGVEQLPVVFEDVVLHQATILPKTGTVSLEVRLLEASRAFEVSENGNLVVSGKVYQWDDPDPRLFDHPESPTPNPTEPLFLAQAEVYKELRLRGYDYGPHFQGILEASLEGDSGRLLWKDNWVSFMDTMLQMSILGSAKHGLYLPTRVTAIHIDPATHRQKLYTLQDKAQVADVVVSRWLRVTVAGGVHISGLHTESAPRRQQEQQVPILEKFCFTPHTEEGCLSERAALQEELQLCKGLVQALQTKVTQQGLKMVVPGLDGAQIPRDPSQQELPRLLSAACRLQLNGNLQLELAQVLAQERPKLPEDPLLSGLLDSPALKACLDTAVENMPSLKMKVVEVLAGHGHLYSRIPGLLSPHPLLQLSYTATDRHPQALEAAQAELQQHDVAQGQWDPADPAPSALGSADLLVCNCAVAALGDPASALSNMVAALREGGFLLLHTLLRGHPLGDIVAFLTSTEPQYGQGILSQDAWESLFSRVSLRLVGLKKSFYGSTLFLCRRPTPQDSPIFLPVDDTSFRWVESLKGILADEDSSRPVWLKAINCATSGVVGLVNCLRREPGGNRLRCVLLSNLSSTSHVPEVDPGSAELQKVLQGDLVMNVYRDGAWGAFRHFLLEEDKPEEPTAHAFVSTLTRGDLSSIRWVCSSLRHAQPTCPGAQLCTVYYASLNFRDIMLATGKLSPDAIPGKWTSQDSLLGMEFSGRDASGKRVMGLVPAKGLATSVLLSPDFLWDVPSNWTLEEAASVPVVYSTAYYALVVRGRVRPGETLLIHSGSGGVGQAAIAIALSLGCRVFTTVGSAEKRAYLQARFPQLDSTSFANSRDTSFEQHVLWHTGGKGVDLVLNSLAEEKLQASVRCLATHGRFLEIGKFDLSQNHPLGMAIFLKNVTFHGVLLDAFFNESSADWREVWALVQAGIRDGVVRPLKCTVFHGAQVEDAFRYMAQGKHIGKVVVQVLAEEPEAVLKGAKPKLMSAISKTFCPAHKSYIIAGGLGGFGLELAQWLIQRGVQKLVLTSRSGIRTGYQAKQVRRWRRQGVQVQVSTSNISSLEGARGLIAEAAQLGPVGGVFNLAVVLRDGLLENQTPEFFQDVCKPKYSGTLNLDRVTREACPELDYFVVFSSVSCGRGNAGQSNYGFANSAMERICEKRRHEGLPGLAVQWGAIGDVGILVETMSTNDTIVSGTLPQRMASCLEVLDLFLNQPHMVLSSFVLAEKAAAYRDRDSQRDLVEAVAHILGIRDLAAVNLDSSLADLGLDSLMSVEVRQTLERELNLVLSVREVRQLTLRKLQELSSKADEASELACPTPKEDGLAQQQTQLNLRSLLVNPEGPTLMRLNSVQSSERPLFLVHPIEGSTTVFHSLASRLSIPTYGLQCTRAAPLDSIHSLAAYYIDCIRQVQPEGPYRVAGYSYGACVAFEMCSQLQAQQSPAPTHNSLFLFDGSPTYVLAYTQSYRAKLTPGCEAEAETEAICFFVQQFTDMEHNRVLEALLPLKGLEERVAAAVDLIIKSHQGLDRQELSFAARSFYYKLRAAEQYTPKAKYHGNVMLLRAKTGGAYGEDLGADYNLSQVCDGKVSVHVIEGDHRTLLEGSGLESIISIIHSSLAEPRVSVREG

Regarding `CC(C)NC(=O)Nc1ccc2c(c1)C(=O)N([C@H](C)CO)C[C@@H](C)[C@@H](CN(C)C(=O)CCC(F)(F)F)OCCCC[C@@H](C)O2`, the values for the half-maximal activity concentration (AC50) in test [1] and in test [2] were < 0.26 µM (active) and 1.02 µM (active), respectively.

For `CC1=NN(c2ccccc2)C(=O)/C1=C/c1ccc[nH]1`, the IC50 at Nonstructural protein 1 is 33 µM (active).

`Cn1c(-c2ccc(F)cc2)cnc1NCc1ccc(F)cc1F`: in test [3], the EC50 is 2.66 µM (active).

With `COC(=O)c1cn(NC(=O)C2COc3ccccc3O2)c(=O)c2ccccc12` (stereo not drawn), on Protein skinhead-1, the IC50 is > 100 µM (inactive).

Turning to `CCc1nc2ccc(C(=O)NCCCn3ccnc3)cn2c1N(C)Cc1cc2ccccc2s1`, the half-maximal activity concentration (AC50) in test [4] is 74.3 µM (active).

On to `O=C(Cn1c2ccccc2c(=O)c2cc([N+](=O)[O-])ccc21)Nc1ccccc1Cl`, for which the half-maximal effective concentration (EC50) with BJ [5] is > 150 µM (not active); with BJ [6], > 150 µM (not active); in [7], > 150 µM (inconclusive); in the test on BJ [8], > 75 µM (inconclusive).

Consider `O=C(Nc1cccc2ccccc12)c1onc2c1CCCC2`, for which the EC50 is 78.7 µM (active) in [9], > 120 µM (not active) in the test with H4 and 0.192 µM (active) in test [10].

On to `CNc1sc(C(=O)c2ccccc2F)c(N)c1-c1nc2ccccc2s1`, for which the IC50 in [11] was 4.92 µM (active); in [12], 49.5 µM (inactive); in test [13] it was > 66 µM (inactive).

Turning to `Cc1ccc(C(C(=O)NC(C)(C)C)N(C(=O)CCC(=O)Nc2ccccn2)c2ccccc2F)cc1` (stereo not drawn), the EC50 in test [3] was 2.99 µM (active).

As for `CCn1c(=O)c([N+](=O)[O-])c(N2CCN(Cc3ccc4c(c3)OCO4)CC2)c2ccccc21`, the IC50 on Fatty acid synthase is 1.8 µM (active). Besides, the AC50 in the test on INS1 was 26.1 µM (active).

As for `COc1ccc(C(=O)NCCc2c[nH]c3ccccc23)cc1S(=O)(=O)N1CCCCC1C` (stereo not drawn), the AC50 in test [4] was 2.97 µM (active).

Regarding `CC(Sc1nnc(-c2cccnc2)n1-c1ccccc1)C(=O)NCc1ccc2c(c1)OCO2` (stereo not drawn), the EC50 is 16.5 µM (active) in test [9], 38 µM (active) in the test on H4 and 9.46 µM (active) in test [10].

For the compound `CSC(=NCCCN1CCOCC1)NS(=O)(=O)c1cccs1`, on Protein skinhead-1, the IC50 is > 100 µM (inactive).

Consider `CC(C)CN=C(S)NC1CC2CCCC(C1)N2C1CCCCC1` (stereo not drawn), for which the EC50 in test [9] is > 120 µM (not active); in the test with H4, 44.3 µM (active); in [10], > 120 µM (not active).

Take `CCC(c1nnnn1CCOC)N1CCN(Cc2ccccc2)CC1` (stereo not drawn): the IC50 on Protein skinhead-1 is > 100 µM (inactive).

With `Cc1cccc(S(=O)(=O)N/N=c2\sc3ccccc3n2C)c1`, the EC50 in test [9] was 10.1 µM (active); with H4, 23.2 µM (active); in test [10], 5.13 µM (active).

For `CC(NC(=O)c1ccco1)C(c1cccs1)N1CCN(c2ccccc2)CC1` (stereo not drawn), the EC50 in [3] was 0.376 µM (active).

For the compound `O=C(CSc1nc(O)c(C2CCCCC2)c(O)n1)NCC1CCCO1` (stereo not drawn), the IC50 on Protein skinhead-1 was > 100 µM (inactive).

As for `O=C(Nc1ccc2c(c1)OCO2)c1ccc(Br)o1`, the EC50 in [9] was > 120 µM (not active); in the test on H4, > 120 µM (not active); in [10], 0.165 µM (active).

On to `COC(=O)CSc1nnc(SCc2ccc(OC)cc2)s1`, for which, on Protein skinhead-1, the IC50 is > 100 µM (inactive).

Turning to `CCc1nc2ccccc2n1CC(=O)N(C(C)CC)C1CCS(=O)(=O)C1` (stereo not drawn), the IC50 on Protein skinhead-1 was > 100 µM (inactive).

Take `Oc1ccc(/C=N/n2c(S)nnc2COc2ccccc2)cc1O`: the EC50 in test [14] was 24.6 µM (active); in [15], > 38 µM (not active). For the same compound, the half-maximal activity concentration (AC50) in [16] is 0.005 µM (active). For the same compound, the IC50 is 6.29 µM (active) on Large T antigen and 2.1 µM (active) in test [17].

The term AC50 denotes the concentration giving half of the maximal activity seen. Broadly, the EC50 is the concentration needed to bring the measured effect to its halfway point.
